Laboratory results as given in ChEMBL document CHEMBL5649166, “RIP3 induces apoptosis independent of pronecrotic kinase activity” (Mol Cell, 2014).
Activity calls are given as the source filed them. No cut-off for these calls is given here.

Experiments:
[1] = biological target: Serine/threonine-protein kinase mTOR (Homo sapiens) (UniProt P42345); assay: Inhibition of human mTOR/FRAP1 using at 1 uM in presence of 32P-ATP by Hotspot assay relative to control
L929 = assay: Inhibition of TLR-3 induced necroptosis in mouse L929 cells assessed as increase in cell viability at higher concentration incubated for 18 hrs in presence of poly(I:C) by Cell Titer-Glo luminescent cell viability assay; assay type: functional, cell-based
SVEC4-10 [2] = assay: Inhibition of DAI-induced necroptosis in MCMV M45mutRHIM infected mouse SVEC4-10 cells assessed as increase in cell viability at 10 uM incubated for 18 hrs by Cell Titer-Glo luminescent cell viability assay; assay type: functional, cell-based
SVEC4-10 [3] = assay: Inhibition of DAI-induced necroptosis in wildtype MCMV infected mouse SVEC4-10 cells assessed as increase in cell viability at 10 uM incubated for 18 hrs in presence of zVAD by Cell Titer-Glo luminescent cell viability assay; assay type: functional, cell-based
3T3SA [4] = assay: Inhibition of TNF-alpha induced necroptosis in mouse 3T3SA cells at 10 uM incubated for 18 hrs in presence of zVAD by SYTOX green uptake assay; assay type: functional, cell-based
3T3SA [5] = assay: Induction of apoptosis in mouse 3T3SA cells assessed as accumulation of cleaved caspase-3 measured after 1.5 to 2.5 hrs by immunoblot analysis; assay type: toxicity, cell-based; conditions: time 1.5-2.5 hrs
3T3SA [6] = assay: Induction of apoptosis in mouse 3T3SA cells assessed as membrane blebbing incubated for 2.5 hrs; assay type: toxicity, cell-based
3T3SA [7] = assay: Induction of apoptosis in mouse 3T3SA cells assessed as cell morphological changes incubated for 2.5 hrs by transmission electron microscopic analysis; assay type: toxicity, cell-based
3T3SA [8] = assay: Induction of apoptosis in mouse 3T3SA cells assessed as accumulation of cleaved caspase-3 by measuring percentage of cleaved caspase-3 positive cells measured after 2.5 hrs in presence of zVAD by immunoblot analysis (reference value: 4%); assay type: toxicity, cell-based
NIH3T3 = assay: Induction of apoptosis in mouse NIH/3T3 cells expressing low level of […] at 1 to 10 uM incubated for 18 hrs by Cell Titer-Glo luminescent cell viability assay; assay type: toxicity, cell-based; conditions: nih3t3, 18 h, dose 1-10 µM
SVEC4-10 [9] = assay: Induction of apoptosis in mouse SVEC4-10 cells transfected with RIP3 shRNA at 10 uM incubated for 18 hrs by Cell Titer-Glo luminescent cell viability assay; assay type: toxicity, cell-based; conditions: svec4-10, 18 h
3T3SA [10] = assay: Induction of apoptosis in mouse 3T3SA cells transfected with RIP3 shRNA assessed as increase in caspase3/7 proteolytic activity incubated for 4 hrs; assay type: toxicity, cell-based
3T3SA [11] = assay: Induction of apoptosis in mouse 3T3SA cells incubated for 18 hrs in presence of zIETD by Cell Titer-Glo luminescent cell viability assay; assay type: toxicity, cell-based
3T3SA [12] = assay: Induction of apoptosis in mouse 3T3SA cells incubated for 18 hrs in presence of zLEHD by Cell Titer-Glo luminescent cell viability assay; assay type: toxicity, cell-based
3T3SA [13] = assay: Induction of apoptosis in mouse 3T3SA cells transfected with Caspase8 siRNA assessed as cleaved caspase 8 accumulation incubated for 2.5 hrs by immunoblot analysis; assay type: toxicity, cell-based
3T3SA [14] = assay: Induction of apoptosis in mouse 3T3SA cells transfected with RIP1 siRNA assessed as accumulation of cleaved caspase 8 incubated for 0.5 to 1.5 hrs by immunoblot analysis; assay type: toxicity, cell-based; conditions: time 0.5-1.5 hrs
MEF [15] = assay: Induction of apoptosis in cFLIPL-/- MEF cells incubated for 18 hrs by Cell Titer-Glo luminescent cell viability assay; assay type: toxicity, cell-based; conditions: mouse
SVEC4-10 [16] = assay: Induction of apoptosis in mouse SVEC4-10 cells transfected with MCMV M45-encoded vIRA incubated for 18 hrs by Cell Titer-Glo luminescent cell viability assay; assay type: toxicity, cell-based; conditions: svec4-10, 18 h
3T3SA [17] = assay: Induction of apoptosis in mouse 3T3SA cells incubated for 18 hrs in presence of BMS-345541 by Cell Titer-Glo luminescent cell viability assay; assay type: toxicity, cell-based
MEF [18] = assay: Induction of apoptosis in TNF-/- MEF cells incubated for 18 hrs by Cell Titer-Glo luminescent cell viability assay; assay type: toxicity, cell-based; conditions: mouse
MEF [19] = assay: Induction of apoptosis in RIP3-/- MEF cells transfected with RIP3 K51A mutant incubated for 18 hrs by Cell Titer-Glo luminescent cell viability assay; assay type: toxicity, cell-based; conditions: mouse
3T3SA [20] = assay: Induction of apoptosis in RIP3shRNA transfected mouse 3T3SA cells co-transfected with shRNA-resistant RIP3 D161G mutant pre-tranfected for 16 hrs followed by compound addition and measured after 18 hrs in presence of zVAD by Cell Titer-Glo luminescent cell viability assay; assay type: toxicity, cell-based
3T3SA [21] = assay: Induction of apoptosis in RIP3shRNA transfected mouse 3T3SA cells co-transfected with shRNA-resistant RIP3 D143N mutant pre-tranfected for 16 hrs followed by compound addition and measured after 18 hrs in presence of zVAD by Cell Titer-Glo luminescent cell viability assay; assay type: toxicity, cell-based
3T3SA [22] = assay: Induction of apoptosis in RIP3shRNA transfected mouse 3T3SA cells co-transfected with shRNA-resistant RIP3 mutRHIM pre-tranfected for 16 hrs followed by compound addition and measured after 18 hrs in presence of zVAD by Cell Titer-Glo luminescent cell viability assay; assay type: toxicity, cell-based
MEF [23] = assay: Induction of apoptosis in RIP3-/- MEF cells expressing dox-induced wildtype RIP3 assessed as RIP1-FADD association incubated for 1 hrs by immunoblot analysis; assay type: toxicity, cell-based; conditions: mouse
3T3SA [24] = assay: Induction of apoptosis in RIP3 shRNA transfected mouse 3T3SA cells co-transfected with shRNA resistant RIP3 assessed as accumulation of wildtype RIP3 in pellet incubated for 3 hrs in presence of zVAD by immunoblot analysis; assay type: toxicity, cell-based
3T3SA [25] = assay: Induction of apoptosis in RIP3 shRNA transfected mouse 3T3SA cells co-transfected with shRNA resistant RIP3 D161G mutant assessed as accumulation of FLAG-tagged RIP3 D161G mutant in pellet incubated for 3 hrs in presence of zVAD by immunoblot analysis; assay type: toxicity, cell-based
MEF [26] = assay: Induction of apoptosis in MEF cells expressing wildtype RIP3 incubated for 18 hrs by Cell Titer-Glo luminescent cell viability assay; assay type: toxicity, cell-based; conditions: mouse
MEF [27] = assay: Induction of apoptosis in MEF cells expressing RIP3 K51A/K51A mutant incubated for 18 hrs by Cell Titer-Glo luminescent cell viability assay; assay type: toxicity, cell-based; conditions: mouse
[28] = biological target: Serine/threonine-protein kinase ULK2 (Homo sapiens) (UniProt Q8IYT8); assay: Inhibition of human ULK2 using myelin basic protein as substrate at 1 uM in presence of 32P-ATP by Hotspot assay relative to control; values are per cent of control
Serine/threonine-protein kinase ULK2 (Homo sapiens), sequence (Q8IYT8 whole entry): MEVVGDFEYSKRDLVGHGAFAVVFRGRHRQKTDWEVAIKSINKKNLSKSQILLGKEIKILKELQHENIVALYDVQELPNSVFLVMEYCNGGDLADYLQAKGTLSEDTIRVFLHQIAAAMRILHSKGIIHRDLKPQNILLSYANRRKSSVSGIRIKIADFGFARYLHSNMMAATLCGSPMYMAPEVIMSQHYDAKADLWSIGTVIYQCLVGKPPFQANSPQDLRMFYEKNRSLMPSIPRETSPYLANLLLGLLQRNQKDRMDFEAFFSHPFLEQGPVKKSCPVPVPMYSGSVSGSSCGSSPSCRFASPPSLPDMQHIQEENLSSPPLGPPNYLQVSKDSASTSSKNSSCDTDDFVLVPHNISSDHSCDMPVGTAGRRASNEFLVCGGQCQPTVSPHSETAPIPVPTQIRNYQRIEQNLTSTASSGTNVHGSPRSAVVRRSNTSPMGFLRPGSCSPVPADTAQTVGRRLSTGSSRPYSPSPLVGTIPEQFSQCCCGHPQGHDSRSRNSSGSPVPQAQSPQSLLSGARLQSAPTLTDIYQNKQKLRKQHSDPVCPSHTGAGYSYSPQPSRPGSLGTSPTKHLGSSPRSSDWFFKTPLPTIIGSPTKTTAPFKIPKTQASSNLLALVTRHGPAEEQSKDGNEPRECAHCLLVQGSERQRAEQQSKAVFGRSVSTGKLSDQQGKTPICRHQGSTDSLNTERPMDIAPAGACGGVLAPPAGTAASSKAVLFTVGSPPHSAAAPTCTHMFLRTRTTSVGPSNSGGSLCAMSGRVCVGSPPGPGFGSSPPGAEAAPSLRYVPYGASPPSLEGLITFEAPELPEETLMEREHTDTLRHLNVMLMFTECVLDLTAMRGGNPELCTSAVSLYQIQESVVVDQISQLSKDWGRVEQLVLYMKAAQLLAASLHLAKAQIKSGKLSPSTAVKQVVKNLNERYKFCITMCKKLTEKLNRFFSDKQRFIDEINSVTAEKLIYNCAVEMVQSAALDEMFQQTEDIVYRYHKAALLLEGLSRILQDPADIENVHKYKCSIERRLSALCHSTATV

[29] = biological target: Serine/threonine-protein kinase ULK3 (Homo sapiens) (UniProt Q6PHR2); assay: Inhibition of human ULK3 using myelin basic protein as substrate at 1 uM in presence of 32P-ATP by Hotspot assay relative to control; values are per cent of control
Serine/threonine-protein kinase ULK3 (Homo sapiens), sequence (Q6PHR2 whole entry): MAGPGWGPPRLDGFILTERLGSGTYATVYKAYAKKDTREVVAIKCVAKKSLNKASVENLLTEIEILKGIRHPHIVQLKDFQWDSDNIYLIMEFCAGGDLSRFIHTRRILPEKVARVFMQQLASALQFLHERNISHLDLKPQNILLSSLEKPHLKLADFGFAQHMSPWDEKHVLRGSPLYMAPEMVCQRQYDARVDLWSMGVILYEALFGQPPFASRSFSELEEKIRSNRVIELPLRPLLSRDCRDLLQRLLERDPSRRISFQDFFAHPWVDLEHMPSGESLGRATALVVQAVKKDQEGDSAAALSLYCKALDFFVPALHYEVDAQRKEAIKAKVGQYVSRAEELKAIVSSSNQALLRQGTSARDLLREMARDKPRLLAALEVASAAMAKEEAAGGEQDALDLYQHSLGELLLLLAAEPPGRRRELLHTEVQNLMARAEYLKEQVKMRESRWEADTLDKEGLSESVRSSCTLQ

[30] = biological target: Myosin-IIIb (Homo sapiens) (UniProt Q8WXR4); assay: Inhibition of human MYO3b using myelin basic protein as substrate at 1 uM in presence of 32P-ATP by Hotspot assay relative to control; values are per cent of control
Myosin-IIIb (Homo sapiens), sequence (Q8WXR4 whole entry): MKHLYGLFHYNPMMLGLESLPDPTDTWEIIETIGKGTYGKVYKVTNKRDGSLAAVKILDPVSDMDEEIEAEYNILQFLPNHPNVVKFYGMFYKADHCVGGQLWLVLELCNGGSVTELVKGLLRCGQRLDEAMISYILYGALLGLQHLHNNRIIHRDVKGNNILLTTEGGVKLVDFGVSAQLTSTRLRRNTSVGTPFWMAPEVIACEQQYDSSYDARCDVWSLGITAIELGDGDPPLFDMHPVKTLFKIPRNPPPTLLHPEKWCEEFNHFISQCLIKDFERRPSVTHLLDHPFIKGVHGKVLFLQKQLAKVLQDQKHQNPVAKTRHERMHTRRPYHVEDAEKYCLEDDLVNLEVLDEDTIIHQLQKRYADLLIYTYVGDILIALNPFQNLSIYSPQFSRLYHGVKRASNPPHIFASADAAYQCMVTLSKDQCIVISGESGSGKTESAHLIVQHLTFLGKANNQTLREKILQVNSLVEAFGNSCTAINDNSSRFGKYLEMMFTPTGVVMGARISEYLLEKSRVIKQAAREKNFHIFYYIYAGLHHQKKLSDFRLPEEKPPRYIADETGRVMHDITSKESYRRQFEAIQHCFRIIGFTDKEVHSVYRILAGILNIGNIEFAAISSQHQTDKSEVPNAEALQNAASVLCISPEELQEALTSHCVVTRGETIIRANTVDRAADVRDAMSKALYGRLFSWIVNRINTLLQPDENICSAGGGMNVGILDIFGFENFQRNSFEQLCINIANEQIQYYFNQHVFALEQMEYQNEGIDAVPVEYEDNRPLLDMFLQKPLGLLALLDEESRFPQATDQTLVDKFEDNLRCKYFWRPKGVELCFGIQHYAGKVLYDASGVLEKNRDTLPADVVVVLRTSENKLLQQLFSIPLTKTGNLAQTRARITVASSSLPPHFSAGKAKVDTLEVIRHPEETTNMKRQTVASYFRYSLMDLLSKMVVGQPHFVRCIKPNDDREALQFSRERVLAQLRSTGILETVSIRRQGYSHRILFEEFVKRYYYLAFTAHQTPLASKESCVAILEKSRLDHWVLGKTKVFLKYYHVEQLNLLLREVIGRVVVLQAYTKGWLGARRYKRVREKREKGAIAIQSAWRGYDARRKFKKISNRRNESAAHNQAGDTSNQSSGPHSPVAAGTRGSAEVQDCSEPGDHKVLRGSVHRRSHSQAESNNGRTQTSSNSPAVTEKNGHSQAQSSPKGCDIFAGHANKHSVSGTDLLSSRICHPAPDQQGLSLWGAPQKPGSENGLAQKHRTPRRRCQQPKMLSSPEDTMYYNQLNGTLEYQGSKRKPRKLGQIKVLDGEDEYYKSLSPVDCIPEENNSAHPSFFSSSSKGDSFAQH

Work on Cc1cc(-c2cnc(N)c3c(-c4ccc5scnc5c4)csc23)n(C)n1 yielded an inhibition [1] of 60.8%.
In the case of CC(C)S(=O)(=O)c1ccc2nccc(Nc3ccc4scnc4c3)c2c1, the inhibition (L929) is reported as “inactive”, the inhibition (SVEC4-10 [2]) is reported as “inactive” and the inhibition (SVEC4-10 [3]) is reported as “Active”. For the same compound, the Activity (3T3SA [4]) was “Active”, the Activity (3T3SA [5]) was “Toxic” and the Activity (3T3SA [6]) was “Toxic”. The Activity (3T3SA [7]) was “Toxic”, the Activity (3T3SA [8]) was 3% and the Activity (NIH3T3) was “Non-Toxic”. The Activity (SVEC4-10 [9]) was “Non-Toxic”, the Activity (3T3SA [10]) was “Non-Toxic” and the Activity (3T3SA [11]) was “Non-Toxic”. For the same compound, the Activity (3T3SA [12]) was “Toxic”, the Activity (3T3SA [13]) was “Non-Toxic” and the Activity (3T3SA [14]) was “Non-Toxic”. The Activity (MEF [15]) was “Non-Toxic”, the Activity (SVEC4-10 [16]) was “Non-Toxic” and the Activity (3T3SA [17]) was “Toxic”. For the same compound, the Activity (MEF [18]) was “Toxic”, the Activity (MEF [19]) was “Toxic” and the Activity (3T3SA [20]) was “Non-Toxic”. For the same compound, the Activity (3T3SA [21]) was “Non-Toxic”, the Activity (3T3SA [22]) was “Non-Toxic” and the Activity (MEF [23]) was “Toxic”. For the same compound, the Activity (3T3SA [24]) was “Toxic”, the Activity (3T3SA [25]) was “Toxic” and the Activity (MEF [26]) was “Toxic”. The Activity (MEF [27]) was “Toxic”.
CNC(=O)c1ccc2c(c1)ncn2-c1ccc(CC(=O)OC(C)(C)C)cc1 gave a residual activity [28] of 96.1%, a residual activity [29] of 95.4% and a residual activity [30] of 92.4%.
